Test results: ChEMBL document CHEMBL1144627, “N-(3-(4-Hydroxyphenyl)-propenoyl)-amino acid tryptamides as SIRT2 inhibitors” (Bioorg Med Chem Lett, 2007)

Assays:
[1] = molecular target: T1, NAD-dependent protein deacetylase sirtuin-1 (Homo sapiens) (UniProt Q96EB6); test: Inhibition of SIRT1 at 200 uM
T1 sequence (whole entry): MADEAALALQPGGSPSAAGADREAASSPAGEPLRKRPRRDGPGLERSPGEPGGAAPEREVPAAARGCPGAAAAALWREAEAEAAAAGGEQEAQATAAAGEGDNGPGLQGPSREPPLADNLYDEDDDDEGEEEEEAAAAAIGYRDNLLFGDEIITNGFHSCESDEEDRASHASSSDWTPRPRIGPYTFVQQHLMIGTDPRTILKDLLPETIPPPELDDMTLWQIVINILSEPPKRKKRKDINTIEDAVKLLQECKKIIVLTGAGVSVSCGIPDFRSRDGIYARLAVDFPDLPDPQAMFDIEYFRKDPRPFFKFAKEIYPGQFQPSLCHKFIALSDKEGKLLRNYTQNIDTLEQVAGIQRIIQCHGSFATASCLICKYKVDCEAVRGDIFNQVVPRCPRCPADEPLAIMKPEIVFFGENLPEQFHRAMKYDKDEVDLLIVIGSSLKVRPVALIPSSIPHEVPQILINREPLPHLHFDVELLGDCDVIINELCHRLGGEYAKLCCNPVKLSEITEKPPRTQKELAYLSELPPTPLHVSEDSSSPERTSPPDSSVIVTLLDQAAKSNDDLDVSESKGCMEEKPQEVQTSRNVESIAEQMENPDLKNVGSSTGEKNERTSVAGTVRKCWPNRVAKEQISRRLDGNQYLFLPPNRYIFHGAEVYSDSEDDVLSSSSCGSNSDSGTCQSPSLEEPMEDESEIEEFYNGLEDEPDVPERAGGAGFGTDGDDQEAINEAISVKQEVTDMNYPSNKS

[2] = molecular target: T2, NAD-dependent protein deacetylase sirtuin-2 (Homo sapiens, UniProt Q8IXJ6); test: Inhibition of SIRT2
T2 sequence (Q8IXJ6 whole entry): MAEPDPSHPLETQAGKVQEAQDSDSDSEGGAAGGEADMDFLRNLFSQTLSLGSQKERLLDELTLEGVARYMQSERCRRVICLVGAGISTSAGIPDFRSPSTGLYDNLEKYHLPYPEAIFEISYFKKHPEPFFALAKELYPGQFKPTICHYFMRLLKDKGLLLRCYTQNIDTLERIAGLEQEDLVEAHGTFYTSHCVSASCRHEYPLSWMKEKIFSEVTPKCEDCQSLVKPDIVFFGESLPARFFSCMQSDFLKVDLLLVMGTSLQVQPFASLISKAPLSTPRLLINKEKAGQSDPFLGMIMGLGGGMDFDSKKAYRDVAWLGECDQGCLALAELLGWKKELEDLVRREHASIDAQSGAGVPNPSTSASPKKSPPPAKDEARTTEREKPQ

[3] = molecular target: T3, NAD-dependent protein deacetylase sirtuin-2 (Homo sapiens) (UniProt Q8IXJ6); test: Inhibition of SIRT2 at 200 uM
T3 sequence (whole entry): T2 sequence (Q8IXJ6 whole entry)

[4] = molecular target: T4, NAD-dependent protein deacetylase sirtuin-1 (Homo sapiens, UniProt Q96EB6); test: Inhibition of SIRT1
T4 sequence (Q96EB6 whole entry): T1 sequence (whole entry)

SMILES | inhibition [1] | IC50 [2] | inhibition [3] | IC50 [4]
CC(C)(NC(=O)/C=C/c1ccc(O)cc1)C(=O)NCCc1c[nH]c2ccccc12 | 6.6% | 50 µM | 83.3% | –
O=C(/C=C/c1ccc(OCc2ccc(F)cc2)cc1)NC1(C(=O)NCCc2c[nH]c3ccc(F)cc23)CCNCC1 | 94.1% | – | – | 73 µM
O=C(/C=C/c1ccc(O)cc1)NCC(=O)NCCc1c[nH]c2ccccc12 | 9.9% | – | 44.3% | –
C[C@H](NC(=O)/C=C/c1ccc(O)cc1)C(=O)NCCc1c[nH]c2ccccc12 | 17.7% | 47 µM | 88.6% | –
NC(=O)C1CCCc2c1[nH]c1ccc(Cl)cc21 (stereo unspecified) | 98.9% | – | 89.4% | –
COc1ccc(/C=C/C(=O)NC(C)(C)C(=O)NCCc2c[nH]c3ccccc23)cc1 | 10.3% | 99 µM | 55.4% | –
CC(C)(NC(=O)/C=C/c1ccc(O)cc1)C(=O)NCCc1c[nH]c2ccc(F)cc12 | 7% | 80 µM | 67.5% | –
C[C@@H](NC(=O)/C=C/c1ccc(O)cc1)C(=O)NCCc1c[nH]c2ccccc12 | 3.2% | – | 8.5% | –
O=C(/C=C/c1ccc(OCc2ccccc2)cc1)NC1(C(=O)NCCc2c[nH]c3ccccc23)CCNCC1 | 97% | 63 µM | 79.1% | 52 µM
CC(C)(NC(=O)/C=C/c1ccc(OCc2ccccc2)cc1)C(=O)NCCc1c[nH]c2ccccc12 | 10.2% | – | 32.6% | –
